Assay results as given in patent US20030203857A1, “Remedies” (priority 2000, published 2003).
Several values for one entry are separate records, joined by “and”; a condition that tells them apart may be missing. Equal values may be shown once.

Experiments:
[1] = test system: HGF production in MRC-5 cells; assay: Enhancing activity for HGF production, MRC-5 cells, HGF ELISA of medium; type: cell-based, Human; conditions: 24 hours, control = 100%
Method: MRC-5 cells (CCL 171: manufactured by DAINIPPON PHARMACEUTICAL CO., LTD., code. 02-021) were suspended in a DME medium containing 10% fetal bovine serum so as to have a concentration of 5×10^4 cells/cm^2. The suspension was put in a 48-well cell culture plate, and the cells were cultured at 37° C. in the presence of 5% CO2 gas for 24 hours. After culturing, the medium was exchanged. Thereafter, the sample was added, and the cells were cultured for another 24 hours. Subsequently, the medium was collected, and the amount of HGF in the medium was assayed using Quantikine Human Hepatocyte Growth Factor (HGF) ELISA Kit (manufactured by Funakoshi, code. RS-0641-00). […] Here, the addition of the sample was carried out by previously preparing aqueous solutions of the samples at various concentrations, and adding a given amount of each solution to the medium so as to have the above-mentioned final concentration. As the control, that with addition of a given amount of distilled water alone (final concentration of the sample: 0 μM) was used. The amount of HGF production was expressed as the relative value (%) when the HGF concentration in the cell culture medium of the control was defined as 100%. All experiments were carried out twice, and an average value was taken.

[2] = test system: NGF production in L-M cells; assay: Enhancing activity for NGF production, L-M cells, NGF enzyme immunoassay of medium; type: cell-based, murine; conditions: control = 100%
Method: L-M cells (ATCC CCL-1.2) from murine fibroblasts were suspended in an M199 medium (manufactured by ICN) containing 0.5% bactopeptone (manufactured by Gibco BRL) so as to have a concentration of 1.5×10^5 cells/ml. The suspension was put in a 96-well plate in an amount of 0.1 ml each well, and the cells were aseptically cultured. After culturing the cells for 3 days, the medium was removed therefrom, and exchanged with an M199 medium containing 0.5% bovine serum albumin (manufactured by Sigma). […] After the termination of the culture, the NGF concentration in the culture medium was determined by an enzyme immunoassay method (NGF Emax Immuno Assay System, manufactured by Promega). Incidentally, in the case where the final concentration of the iron-treated chlorogenic acid was 0 μM, a given amount of an aqueous solution obtained by an iron treatment in the absence of chlorogenic acid was added to the medium. In addition, for the purpose of comparison, the activity of the chlorogenic acid without the iron treatment was assayed in the same manner. As described above, that with addition of a given amount of distilled water alone (final concentration of chlorogenic acid without the iron treatment: 0 μM) was used as the control. The amount of NGF production was expressed as the relative value (%) when the NGF concentration in the cell culture medium of the control was defined as 100%. The experiment was carried out twice, and an average value was taken. The enhancing activity for NGF production of chlorogenic acid was enhanced by the iron treatment.

mouse = type: in vivo; conditions: orally, single dose of 1 g/1 kg

| Compound | Amount of HGF Production ([1]; 1 μM) [%] | Amount of HGF Production ([1]; 10 μM) [%] | Amount of HGF Production ([1]; 100 μM) [%] | Death after single oral administration (mouse) | other results |
| --- | --- | --- | --- | --- | --- |
| 3,5-dicaffeoylquinic acid | 142 | 206 | 290 | – | – |
| CCOC(=O)/C=C/c1ccc(O)c(O)c1 [Caffeic Acid Ethyl Ester, caffeic acid ethyl ester] | – | – | – | – | Amount of NGF Production ([2]; 0.0625 mg/ml): 1279.1% |
| COC(=O)/C=C/c1ccc(O)c(O)c1 [Caffeic Acid Methyl Ester, caffeic acid methyl ester] | – | – | – | – | Amount of NGF Production ([2]; 0.0625 mg/ml): 824.4%; Amount of NGF Production ([2]; 0.125 mg/ml): 889.6% |
| O=C(O)/C=C/c1ccc(O)c(O)c1 [caffeic acid] | 85 | 117 | 196 | no cases of death | Amount of HGF Production ([1]; 1000 μM): 92%; Amount of NGF Production ([2]; 62.5 μM, 20 hours): 97.8%; Amount of NGF Production ([2]; 125 μM, 20 hours): 199.5%; Amount of NGF Production ([2]; 250 μM, 20 hours): 221.2% and 227.8%; Amount of NGF Production ([2]; 500 μM, 20 hours): 287.9%; Amount of NGF Production ([2]; 1000 μM, 20 hours): 269.3% |
| O=C(/C=C/c1ccc(O)c(O)c1)O[C@@H]1C[C@](O)(C(=O)O)C[C@@H](O)[C@H]1O [chlorogenic acid] | 105 | 122 | 302 | no cases of death | Amount of HGF Production ([1]; 50 μM (as chlorogenic acid)): 148%; Amount of HGF Production ([1]; 500 μM): 479%; Amount of HGF Production ([1]; 1000 μM): 624%; Amount of NGF Production ([2]; 125 μM, 20 hours): 124.6%; Amount of NGF Production ([2]; 250 μM, 20 hours): 308.5% and 192.8%; Amount of NGF Production ([2]; 500 μM, 20 hours): 351.1% and 382.2% and 328.5% and 231.9%; Amount of NGF Production ([2]; 1000 μM, 20 hours): 256.2% |
| O=C(/C=C/c1ccc(O)c(O)c1)O[C@H]1[C@H](O)C[C@](O)(C(=O)O)C[C@H]1O [cryptochlorogenic acid, 4-caffeoyl-quinic acid] | – | – | – | no cases of death | – |
| O=C(O[C@@H]1Cc2c(O)cc(O)cc2O[C@@H]1c1cc(O)c(O)c(O)c1)c1cc(O)c(O)c(O)c1 [epigallocatechin gallate] | 175 | 160 | – | no cases of death | – |
| O=C(O)c1cc(O)c(O)c(O)c1 [gallic acid] | 112 | 217 | 576 | no cases of death | – |
| O=c1cc(-c2ccc(O)c(O)c2)oc2cc(O)c([C@@H]3O[C@H](CO)[C@@H](O)[C@H](O)[C@H]3O)c(O)c12 [isoorientin] | – | – | – | no cases of death | – |
| COc1cc(O)c(CC=C(C)C)c2c1C(=O)CC(c1ccc(O)cc1)O2 (centres unmarked) [isoxanthohumol] | – | – | – | – | Amount of NGF Production ([2]; 50 μM, 20 hours): 110.7%; Amount of NGF Production ([2]; 100 μM, 20 hours): 121.4%; Amount of NGF Production ([2]; 200 μM, 20 hours): 198.0% |
| O=c1c(O)c(-c2ccc(O)cc2)oc2cc(O)cc(O)c12 [kaemferol] | – | – | – | no cases of death | – |
| O=c1c(O)c(-c2cc(O)c(O)c(O)c2)oc2cc(O)cc(O)c12 [myricetin] | 187 | 543 | 454 | no cases of death | – |
| O=C(/C=C/c1ccc(O)c(O)c1)O[C@@H]1C[C@@](O)(C(=O)O)C[C@@H](O)[C@@H]1O [neochlorogenic acid, 5-caffeoyl-quinic acid] | – | – | – | no cases of death | – |
| O=c1c(O)c(-c2ccc(O)c(O)c2)oc2cc(O)cc(O)c12 [quercetin] | – | 139 | 304 | no cases of death | – |
| COc1cc2c(c(O)c1C(=O)/C=C/c1ccc(O)cc1)CC(O)C(C)(C)O2 (centres unmarked) [xanthohumol B] | – | – | – | no cases of death | – |
| C=C(C)C(O)Cc1c(O)cc(OC)c(C(=O)/C=C/c2ccc(O)cc2)c1O (centres unmarked) [xanthohumol D] | – | – | – | no cases of death | – |
